# Measurements from US20230242474A1, “LIPID COMPOUND AND THE COMPOSITION THEREOF” (GUANGZHOU RIBOBIO CO., LTD, priority 2020, published 2023).
# Tested on: BALB/c mice
# Test: Transfection efficiency: in vivo bioluminescence of luciferase mRNA encapsulated by different LNP
# Conditions: intramuscular injection, 5 μg/mice, 3 h
# Method: All animals were kept in adaptive feeding for more than 7 days before experiments, free to uptake food and drink water during experimental period, illumination 12/12 h alternating light and dark, room temperature was 20-26° C., humidity was 40-70%.
# Experimental method: female BALB/c mice, encapsulated luciferase mRNA with different LNP by four different administrations which included subcutaneous injection (under the armpit), tail vein injection, intraperitoneal injection, intramuscular injection (the tibialis anterior muscle of mouse hind leg); 3, 6, 24, 48 h after administration, applied in vivo fluorescence imaging system (brand: Bruker, model: XTREME) for bioluminescence detection, the specific steps were as follows: substrate preparation: took appropriate amount of substrate Luciferin (brand: Promega) and added saline to make a 10 mg/ml solution, avoided light, injected 100 μl solution into each mouse intraperitoneally. […] Put the anesthetized mouse into machine, set the bioluminescence setting and took the photos, captured the photograph and then adjusted the upper and lower values of photograph, then collected data on the concentrated distribution of fluorescence (e.g., fluorescence intensity, average photons number, and total photons number) and processed data. Statistical analysis: the in vivo imaging outcome were shown in the fluorescence intensity or average of total photons number of different animal in the same tested group, which were used to judge whether the fluorescence intensity or total photon number of luciferase mRNA encapsulated by different LNP were high or low.
# The fluorescence intensity and total photons number reflects the transfection efficiency of LNP, the value is higher, referring to the efficiency of delivering encapsulated substance into cell by LNP is higher.
row,SMILES,"Total photons number, Leg"
1,CCCCC/C=C/C/C=C/CCCCCCCCN(CCO)CCCCCCCC(=O)OCC(COCCCCCC)(COCCCCCC)COCCCCCC [A20],5.99E+08
2,CCCCC/C=C/C/C=C/CCCCCCCCN(CCCO)CCCCCCCC(=O)OCC(COCCCCCC)(COCCCCCC)COCCCCCC [A21],9.07E+08
3,CCCCCCCCCCCOC(=O)CCCCCN(CCCO)CCCCCCCC(=O)OCC(COCCCCCC)(COCCCCCC)COCCCCCC [A22],4.16E+09
4,CCCCCCCCCCCOC(=O)CCCCCN(CCO)CCCCCCCC(=O)OCC(COCCCCCC)(COCCCCCC)COCCCCCC [A23],4.39E+09
5,CCCCCCOCC(COCCCCCC)(COCCCCCC)COC(=O)CCCCCCCN(CCO)CCCCCCCC(=O)OCC(COCCCCCC)(COCCCCCC)COCCCCCC [A24],1.94E+08
6,CCCCCCOCC(COCCCCCC)NC(=O)CCCCCCCN(CCCO)CCCCCCCC(=O)OC(COCCCCCC)COCCCCCC [A25],4.23E+08

# Same assay, conditions: intramuscular injection, 5 μg/mice, 6 h
row,SMILES,"Total photons number, Leg"
1,CCCCC/C=C/C/C=C/CCCCCCCCN(CCO)CCCCCCCC(=O)OCC(COCCCCCC)(COCCCCCC)COCCCCCC [A20],5.65E+08
2,CCCCC/C=C/C/C=C/CCCCCCCCN(CCCO)CCCCCCCC(=O)OCC(COCCCCCC)(COCCCCCC)COCCCCCC [A21],7.11E+08
3,CCCCCCCCCCCOC(=O)CCCCCN(CCCO)CCCCCCCC(=O)OCC(COCCCCCC)(COCCCCCC)COCCCCCC [A22],5.74E+09
4,CCCCCCCCCCCOC(=O)CCCCCN(CCO)CCCCCCCC(=O)OCC(COCCCCCC)(COCCCCCC)COCCCCCC [A23],2.68E+09
5,CCCCCCOCC(COCCCCCC)(COCCCCCC)COC(=O)CCCCCCCN(CCO)CCCCCCCC(=O)OCC(COCCCCCC)(COCCCCCC)COCCCCCC [A24],1.56E+08
6,CCCCCCOCC(COCCCCCC)NC(=O)CCCCCCCN(CCCO)CCCCCCCC(=O)OC(COCCCCCC)COCCCCCC [A25],2.49E+08

# Same assay, conditions: intramuscular injection, 5 μg/mice, 24 h
row,SMILES,"Total photons number, Leg"
1,CCCCC/C=C/C/C=C/CCCCCCCCN(CCO)CCCCCCCC(=O)OCC(COCCCCCC)(COCCCCCC)COCCCCCC [A20],2.03E+08
2,CCCCC/C=C/C/C=C/CCCCCCCCN(CCCO)CCCCCCCC(=O)OCC(COCCCCCC)(COCCCCCC)COCCCCCC [A21],1.62E+08
3,CCCCCCCCCCCOC(=O)CCCCCN(CCCO)CCCCCCCC(=O)OCC(COCCCCCC)(COCCCCCC)COCCCCCC [A22],1.24E+09
4,CCCCCCCCCCCOC(=O)CCCCCN(CCO)CCCCCCCC(=O)OCC(COCCCCCC)(COCCCCCC)COCCCCCC [A23],8.00E+08
5,CCCCCCOCC(COCCCCCC)(COCCCCCC)COC(=O)CCCCCCCN(CCO)CCCCCCCC(=O)OCC(COCCCCCC)(COCCCCCC)COCCCCCC [A24],6.31E+07
6,CCCCCCOCC(COCCCCCC)NC(=O)CCCCCCCN(CCCO)CCCCCCCC(=O)OC(COCCCCCC)COCCCCCC [A25],9.50E+07

# Tested on: not given
# Test: not given
# Format: physicochemical
# Conditions: lipid nanoparticle of the ionizable lipid (ionizable lipid/phospholipid/PEG lipid/structural lipid 50/10/1.5/38.5 %) with mRNA, Table 1
row,SMILES,Size (nm)
1,CCCCC/C=C/C/C=C/CCCCCCCCN(CCO)CCCCCCCC(=O)OCC(COCCCCCC)(COCCCCCC)COCCCCCC [A20],77.17
2,CCCCC/C=C/C/C=C/CCCCCCCCN(CCCO)CCCCCCCC(=O)OCC(COCCCCCC)(COCCCCCC)COCCCCCC [A21],78.3
3,CCCCCCCCCCCOC(=O)CCCCCN(CCCO)CCCCCCCC(=O)OCC(COCCCCCC)(COCCCCCC)COCCCCCC [A22],86.19
4,CCCCCCCCCCCOC(=O)CCCCCN(CCO)CCCCCCCC(=O)OCC(COCCCCCC)(COCCCCCC)COCCCCCC [A23],74.63
5,CCCCCCOCC(COCCCCCC)(COCCCCCC)COC(=O)CCCCCCCN(CCO)CCCCCCCC(=O)OCC(COCCCCCC)(COCCCCCC)COCCCCCC [A24],78.69
6,CCCCCCOCC(COCCCCCC)NC(=O)CCCCCCCN(CCCO)CCCCCCCC(=O)OC(COCCCCCC)COCCCCCC [A25],105.3

# Same assay, conditions: lipid nanoparticle of the ionizable lipid with mRNA, Table 1
SMILES,Encapsulated percentage (%),PDI
CCCCC/C=C/C/C=C/CCCCCCCCN(CCO)CCCCCCCC(=O)OCC(COCCCCCC)(COCCCCCC)COCCCCCC [A20],97.09,0.121
CCCCC/C=C/C/C=C/CCCCCCCCN(CCCO)CCCCCCCC(=O)OCC(COCCCCCC)(COCCCCCC)COCCCCCC [A21],97.20,0.098
CCCCCCCCCCCOC(=O)CCCCCN(CCCO)CCCCCCCC(=O)OCC(COCCCCCC)(COCCCCCC)COCCCCCC [A22],96.85,0.049
CCCCCCCCCCCOC(=O)CCCCCN(CCO)CCCCCCCC(=O)OCC(COCCCCCC)(COCCCCCC)COCCCCCC [A23],97.41,0.054
CCCCCCOCC(COCCCCCC)(COCCCCCC)COC(=O)CCCCCCCN(CCO)CCCCCCCC(=O)OCC(COCCCCCC)(COCCCCCC)COCCCCCC [A24],96.77,
CCCCCCOCC(COCCCCCC)NC(=O)CCCCCCCN(CCCO)CCCCCCCC(=O)OC(COCCCCCC)COCCCCCC [A25],83.60,0.094
